Test results published in patent US20040023884A1, “Biologically active peptides from functional domains of bactericidal/permeability-increasing protein and uses thereof” (priority 1993, published 2004).
Square brackets hold non-standard residues; d marks the D form. Ends that are not written are not given here. 1Nal = N[C@@H](Cc1cccc2ccccc12)C(=O)O; d1Nal = N[C@H](Cc1cccc2ccccc12)C(=O)O; 3Pal = N[C@@H](Cc1cccnc1)C(=O)O; Pal = not defined here

What was measured:
[1] = tested on: rough mutant E. coli J5 bacteria; experiment: Radial diffusion bactericidal assay, E. coli J5; type: cell-based; details: radial diffusion; PROBIT analysis; E. coli J5 (rough)
Protocol: BPI proteolytic fragments produced according to Example 1 were screened for bactericidal effects using rough mutant E. coli J5 bacteria in a radial diffusion assay. Specifically, an overnight culture of E. coli J5 was diluted 1:50 into fresh tryptic soy broth and incubated for 3 hours at 37° C. to attain log phase growth of the culture. Bacteria were then pelleted at 3,000 rpm for 5 minutes in a Sorvall RT6000B centrifuge (Sorvall Instruments, Newton, Conn.). 5 mL of 10 mM sodium phosphate buffer (pH 7.4) was added and the preparation was re-pelleted. […] The bacteria were diluted to 4×10^6 CFU/mL in 10 mL of molten underlayer agarose (at approximately 45° C.) and inverted repeatedly to mix in 15 mL polypropylene tubes conventionally used for this purpose.
The entire contents of such tubes were then poured into a level square petri dish and distributed evenly by rocking the dish side-to-side. […] A series of wells were then punched into the hardened agarose using a sterile 3 mm punch attached to a vacuum apparatus. The punch was sterilized with 100% alcohol and allowed to air dry prior to use to avoid contaminating the bacterial culture.
5 or 10 μL of each of the BPI fragments were carefully pipetted into each well. As a negative control, dilution buffer (pH 8.3) was added to a separate well, and rBPI23 at concentrations of 5 μg/mL and 1 μg/mL were also added as positive controls. Each plate was incubated at 37° C. for 3 hours, and then 10 mL of molten overlayer agarose (at approximately 45° C.) was added into the level petri dish, allowed to harden and incubated overnight at 37° C. […] The bacterial zones were measured with a micrometer.

[2] = 3H-heparin binding assay (affinity and capacity); details: for Heparin Capacity: heparin bound at saturation; for Kd: read-out: Heparin Affinity
Protocol: Briefly, each fragment was added to wells of a 96-well microtiter plate having a polyvinylidene difluoride membrane (Immunobilon-P, Millipore, Bedford, Mass.) disposed at the bottom of the wells. […] Positive control wells contained varying amounts of rBPI23. […] DuPont-NEN, Wilmington, Del.) were made in the blocking buffer and incubated in the BPI peptide-containing wells for one hour at 4° C. The unbound heparin was aspirated and the wells were washed three times with blocking buffer, dried and removed for quantitation in a liquid scintillation counter (Model 1217, LKB, Gaithersburg, Md.). Although BSA in the blocking buffer did show a low affinity and capacity to bind heparin, this was considered physiologically irrelevant and the background was routinely subtracted from the test compound signal.

[3] = tested on: E. coli 0111:B4 (smooth) bacteria; experiment: Radial diffusion bactericidal assay, E. coli 0111:B4; type: cell-based; details: radial diffusion; PROBIT analysis; E. coli O111:B4 (smooth)
[4] = tested on: Staphylococcus aureus; experiment: Radial diffusion bactericidal assay, Staphylococcus aureus; type: cell-based; details: radial diffusion; PROBIT analysis; S. aureus

Substance | pmol added to well to achieve a 30 mm^2 bactericidal zone, E. coli J5 [1] | Heparin Capacity [2] | Kd [2] [nM] | pmol added to well to achieve a 30 mm^2 bactericidal zone, E. coli O111:B4 [3] | pmol added to well to achieve a 30 mm^2 bactericidal zone, S. aureus [4] | Heparin Affinity [2]
ADADIKISGICWKAQKRFLK [BPI.71] | 2,296.94 pmol | 158.9 ng | 75.6 | b (no detectable activity up to 5 μg/well) | b (no detectable activity up to 5 μg/well) | 
IKISGKAβ-(3-pyridyl)KAQKRFLK (IKISGK[3Pal]KAQKRFLK) [BPI.70] | b (no detectable activity up to 5 μg/well) | 59.2 ng | 145 | b (no detectable activity up to 5 μg/well) | b (no detectable activity up to 5 μg/well) | 
IKISGKFKAQKRFLK [BPI.61] | 86,541.00 pmol | 85.2 ng | 58.3 | b (no detectable activity up to 5 μg/well) | b (no detectable activity up to 5 μg/well) | 
IKISGAWAAQKRFLK [BPI.59] | 3,718.00 pmol | 106.7 ng | 175 | b (no detectable activity up to 5 μg/well) | b (no detectable activity up to 5 μg/well) | 
KSKVKWLIQLWHKK [BPI.124] | 91.23 pmol |  |  | 3,916.32 pmol | b (no detectable activity up to 5 μg/well) | 
IKISGKWKAAβ-(1-naphthyl)Aβ-(1-naphthyl)RFLK (IKISGKWKA[1Nal][1Nal]RFLK) [BPI.121] | 154.35 pmol |  |  | 1,856.40 pmol | 941,388.07 pmol | 
IKISGKWDKAQKRFLK [BPI.66] | 5,846.50 pmol | 111.6 ng | 296 | b (no detectable activity up to 5 μg/well) | b (no detectable activity up to 5 μg/well) | 
IKISGKAβ-(1-naphthyl)KAQKRFLK (IKISGK[1Nal]KAQKRFLK) [BPI.67] | 2,424.30 pmol | 250.4 ng | 108 | b (no detectable activity up to 5 μg/well) | b (no detectable activity up to 5 μg/well) | 
GWLIQLFHKKIESALRNKMNS [BPI.55] | 299.36 pmol | 166.1 ng | 368 | 3,702.60 pmol | 28,204.45 pmol | 
QQGTAALQKELKRIK [BPI.1] | b (no detectable activity up to 5 μg/well) | no binding |  | b (no detectable activity up to 5 μg/well) | b (no detectable activity up to 5 μg/well) | no binding
KSKVGAD-2-β-(1-naphthyl)LIQLFHKK (KSKVG[d1Nal]LIQLFHKK; not fully specified) [BPI.131] | 1,438.21 pmol |  |  | b (no detectable activity up to 5 μg/well) | b (no detectable activity up to 5 μg/well) | 
KSKVGWLISLFHKK [BPI.104] | 385.85 pmol |  |  | 1,376.42 pmol | 27,933.64 pmol | 
IKISGKWKAWKRAβ-(1-naphthyl)LKK (IKISGKWKAWKR[1Nal]LKK) [BPI.105] | 65.35 pmol |  |  | 206.98 pmol | 6,260.97 pmol | 
KSKVGWLIQFFHKK [BPI.113] | 270.66 pmol |  |  | 8,671.73 pmol | b (no detectable activity up to 5 μg/well) | 
KWQLRSKGKIKIFKA [BPI.114] | 1,696.20 pmol |  |  | b (no detectable activity up to 5 μg/well) | b (no detectable activity up to 5 μg/well) | 
KSKVGWLIQLFHKAβ-(1-naphthyl) (KSKVGWLIQLFHK[1Nal]) [BPI.111] | 969.00 pmol |  |  | 7,232.08 pmol | 12,467.42 pmol | 
CIKISGKWKAQKRPLC [BPI.57] | 514.03 pmol |  |  | b (no detectable activity up to 5 μg/well) | b (no detectable activity up to 5 μg/well) | 
KSKVGFLIQLFHKK [BPI.127] | 406.01 pmol |  |  | b (no detectable activity up to 5 μg/well) | b (no detectable activity up to 5 μg/well) | 
KSKVGWDLIQLFHKK [BPI.126] | 1,979.97 pmol |  |  | b (no detectable activity up to 5 μg/well) | b (no detectable activity up to 5 μg/well) | 
Aβ-(1-naphthyl)Aβ-(1-naphthyl)RFLKF ([1Nal][1Nal]RFLKF) [BPI.140] | 84.76 pmol |  |  | 605.34 pmol | 9,977.71 pmol | 
KSKVGFDLIQLPHKK [BPI.128] | 2,271.14 pmol |  |  | b (no detectable activity up to 5 μg/well) | b (no detectable activity up to 5 μg/well) | 
IKISGKAβ-(1-naphthyl)KAQAβ-(1-naphthyl)RFLK (IKISGK[1Nal]KAQ[1Nal]RFLK) [BPI.112] | 1,485.92 pmol |  |  | b (no detectable activity up to 5 μg/well) | b (no detectable activity up to 5 μg/well) | 
IKISGKWKAQKRWLK [BPI.141] | 2,809.51 pmol |  |  | b (no detectable activity up to 5 μg/well) | b (no detectable activity up to 5 μg/well) | 
KSKVGA(pyridyl)LIQLFHKK (KSKVG[Pal]LIQLFHKK; reading uncertain; also: printed as KSKVGA(pyridyl)LIQLFHKK) [BPI.132] | 4,505.79 pmol |  |  | b (no detectable activity up to 5 μg/well) | b (no detectable activity up to 5 μg/well) | 
IKISGKAβ-(1-naphthyl)KAAβ-(1-naphthyl)Aβ-(1-naphthyl)RFLK (IKISGK[1Nal]KA[1Nal][1Nal]RFLK) [BPI.122] | 179.89 pmol |  |  | 2,123.57 pmol | 2,631,667.24 pmol | 
KSKVGWLIQLFAβ-(1-naphthyl)KK (KSKVGWLIQLF[1Nal]KK) [BPI.110] | 812.33 pmol |  |  | 7,952.04 pmol | b (no detectable activity up to 5 μg/well) | 
KSKVGWLITLFHKK [BPI.106] | 427.12 pmol |  |  | 3,413.80 pmol | b (no detectable activity up to 5 μg/well) | 
